For experiment [1], the system named is A2780. The experiment is described as follows: Antitumor activity against human A2780 cells xenografted in BALB/c nude mouse assessed as tumor growth inhibition at 30 mg/kg, ip administered once every 2 days for 14 consecutive days relative to control. It counts as functional. Particulars: read-out: TGI.
Experiment [2] deals with A2780. The experiment is described as follows: Induction of apoptosis in human A2780 cells assessed as total apoptotic cells at 5 to 20 uM after 24 hrs by annexin V/propidium iodide staining based flow cytometry (reference value: 17.3%). It is filed as functional.
Experiment [3] concerns the target Glycogen synthase kinase-3 beta (Homo sapiens, UniProt P49841). The experiment is described as follows: Inhibition of recombinant human GSK3beta using […] as substrate at 100 uM after 60 mins by spectrophotometric analysis.
The target of experiment [4] is Dual specificity mitogen-activated protein kinase kinase 1 (Homo sapiens) (UniProt Q02750). The experiment is described as follows: Inhibition of recombinant human MEK1 using inactivated ERK2 as substrate at 100 uM after 60 mins in presence of ATP relative to control.
Chain of Dual specificity mitogen-activated protein kinase kinase 1 (Homo sapiens) (Q02750 whole entry): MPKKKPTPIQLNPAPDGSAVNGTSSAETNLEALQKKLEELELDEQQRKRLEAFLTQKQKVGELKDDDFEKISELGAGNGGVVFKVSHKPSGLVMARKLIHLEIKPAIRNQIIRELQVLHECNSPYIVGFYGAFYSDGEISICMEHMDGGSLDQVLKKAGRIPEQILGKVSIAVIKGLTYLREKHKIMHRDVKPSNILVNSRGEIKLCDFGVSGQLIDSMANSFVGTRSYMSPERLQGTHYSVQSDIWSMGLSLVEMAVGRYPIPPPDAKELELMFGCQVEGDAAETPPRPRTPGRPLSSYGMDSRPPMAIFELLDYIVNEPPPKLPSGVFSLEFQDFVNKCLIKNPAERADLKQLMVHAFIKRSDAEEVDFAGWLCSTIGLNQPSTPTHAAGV
Experiment [5] has as its target Mitogen-activated protein kinase 1 (Homo sapiens) (UniProt P28482). The experiment is described as follows: Inhibition of human MAPK2 at 100 uM in presence of ATP relative to control.
For experiment [6], the target named is 3-phosphoinositide-dependent protein kinase 1 (Homo sapiens) (UniProt O15530). In words: Inhibition of recombinant human PDK1 using Ulight-FLGFTYVAP as substrate at 100 uM after 90 mins in presence of ATP relative to control.
Chain of 3-phosphoinositide-dependent protein kinase 1 (Homo sapiens) (O15530 whole entry): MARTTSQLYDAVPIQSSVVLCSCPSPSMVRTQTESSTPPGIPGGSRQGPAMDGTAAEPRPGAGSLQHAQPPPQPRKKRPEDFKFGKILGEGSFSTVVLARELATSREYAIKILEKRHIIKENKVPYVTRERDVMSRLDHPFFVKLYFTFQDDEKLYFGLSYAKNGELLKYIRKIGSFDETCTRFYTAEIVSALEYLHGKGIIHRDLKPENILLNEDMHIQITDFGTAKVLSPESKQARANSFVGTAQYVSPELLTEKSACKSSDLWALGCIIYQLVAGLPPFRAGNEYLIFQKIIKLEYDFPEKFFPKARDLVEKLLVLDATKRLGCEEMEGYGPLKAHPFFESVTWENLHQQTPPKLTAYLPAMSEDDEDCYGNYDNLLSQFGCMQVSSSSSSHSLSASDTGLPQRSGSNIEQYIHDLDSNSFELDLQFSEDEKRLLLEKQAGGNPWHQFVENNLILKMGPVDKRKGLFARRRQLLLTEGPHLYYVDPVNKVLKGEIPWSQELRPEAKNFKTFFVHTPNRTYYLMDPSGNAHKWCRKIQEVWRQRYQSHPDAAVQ
Experiment [7] has as its target Mitogen-activated protein kinase 8 (Homo sapiens) (UniProt P45983). The experiment is described as follows: Inhibition of human JNK1alpa1 using at 100 uM after 90 mins in presence of ATP relative to control.
For experiment [8], the target named is Platelet-derived growth factor receptor beta (Homo sapiens) (UniProt P09619). The experiment is described as follows: Inhibition of PDGFRbeta (unknown origin) using poly (Glu, Tyr) 4:1 as substrate at 100 uM after 1 hr by ELISA relative to control. In general terms: ELISA stands for enzyme-linked immunosorbent assay.
In experiment [9] the target is Mast/stem cell growth factor receptor Kit (Homo sapiens) (UniProt P10721). In words: Inhibition of c-kit (unknown origin) using poly (Glu, Tyr) 4:1 as substrate at 100 uM after 1 hr by ELISA relative to control.
Chain of Mast/stem cell growth factor receptor Kit (Homo sapiens) (P10721 whole entry): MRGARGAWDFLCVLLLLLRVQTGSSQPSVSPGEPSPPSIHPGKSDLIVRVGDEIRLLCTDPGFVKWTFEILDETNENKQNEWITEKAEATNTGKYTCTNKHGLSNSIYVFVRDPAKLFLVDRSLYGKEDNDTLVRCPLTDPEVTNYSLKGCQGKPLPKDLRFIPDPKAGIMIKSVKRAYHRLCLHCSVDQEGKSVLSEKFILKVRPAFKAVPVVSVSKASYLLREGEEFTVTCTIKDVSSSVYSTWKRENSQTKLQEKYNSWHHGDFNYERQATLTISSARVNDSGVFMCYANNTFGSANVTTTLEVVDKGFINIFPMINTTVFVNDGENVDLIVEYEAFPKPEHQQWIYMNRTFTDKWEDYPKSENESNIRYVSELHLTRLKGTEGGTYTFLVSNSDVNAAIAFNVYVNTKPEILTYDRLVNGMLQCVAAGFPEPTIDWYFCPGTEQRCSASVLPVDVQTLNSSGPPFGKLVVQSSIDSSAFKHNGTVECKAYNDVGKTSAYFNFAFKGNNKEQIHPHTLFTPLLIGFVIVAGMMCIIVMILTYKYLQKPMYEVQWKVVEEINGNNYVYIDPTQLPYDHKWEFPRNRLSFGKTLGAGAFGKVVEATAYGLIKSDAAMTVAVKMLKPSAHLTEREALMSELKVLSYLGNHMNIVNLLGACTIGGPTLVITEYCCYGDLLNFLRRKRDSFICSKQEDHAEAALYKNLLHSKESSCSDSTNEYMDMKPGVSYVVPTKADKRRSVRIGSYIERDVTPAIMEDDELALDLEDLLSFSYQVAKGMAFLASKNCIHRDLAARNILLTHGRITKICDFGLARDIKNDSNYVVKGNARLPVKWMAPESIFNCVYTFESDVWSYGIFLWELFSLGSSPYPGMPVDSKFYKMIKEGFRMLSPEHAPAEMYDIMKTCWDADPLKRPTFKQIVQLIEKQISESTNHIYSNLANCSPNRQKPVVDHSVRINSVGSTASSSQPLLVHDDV
Experiment [10] deals with Vascular endothelial growth factor receptor 2 (Homo sapiens) (UniProt P35968). In words: Inhibition of KDR (unknown origin) using poly (Glu, Tyr) 4:1 as substrate at 100 uM after 1 hr by ELISA relative to control.
Chain of Vascular endothelial growth factor receptor 2 (Homo sapiens) (P35968 whole entry): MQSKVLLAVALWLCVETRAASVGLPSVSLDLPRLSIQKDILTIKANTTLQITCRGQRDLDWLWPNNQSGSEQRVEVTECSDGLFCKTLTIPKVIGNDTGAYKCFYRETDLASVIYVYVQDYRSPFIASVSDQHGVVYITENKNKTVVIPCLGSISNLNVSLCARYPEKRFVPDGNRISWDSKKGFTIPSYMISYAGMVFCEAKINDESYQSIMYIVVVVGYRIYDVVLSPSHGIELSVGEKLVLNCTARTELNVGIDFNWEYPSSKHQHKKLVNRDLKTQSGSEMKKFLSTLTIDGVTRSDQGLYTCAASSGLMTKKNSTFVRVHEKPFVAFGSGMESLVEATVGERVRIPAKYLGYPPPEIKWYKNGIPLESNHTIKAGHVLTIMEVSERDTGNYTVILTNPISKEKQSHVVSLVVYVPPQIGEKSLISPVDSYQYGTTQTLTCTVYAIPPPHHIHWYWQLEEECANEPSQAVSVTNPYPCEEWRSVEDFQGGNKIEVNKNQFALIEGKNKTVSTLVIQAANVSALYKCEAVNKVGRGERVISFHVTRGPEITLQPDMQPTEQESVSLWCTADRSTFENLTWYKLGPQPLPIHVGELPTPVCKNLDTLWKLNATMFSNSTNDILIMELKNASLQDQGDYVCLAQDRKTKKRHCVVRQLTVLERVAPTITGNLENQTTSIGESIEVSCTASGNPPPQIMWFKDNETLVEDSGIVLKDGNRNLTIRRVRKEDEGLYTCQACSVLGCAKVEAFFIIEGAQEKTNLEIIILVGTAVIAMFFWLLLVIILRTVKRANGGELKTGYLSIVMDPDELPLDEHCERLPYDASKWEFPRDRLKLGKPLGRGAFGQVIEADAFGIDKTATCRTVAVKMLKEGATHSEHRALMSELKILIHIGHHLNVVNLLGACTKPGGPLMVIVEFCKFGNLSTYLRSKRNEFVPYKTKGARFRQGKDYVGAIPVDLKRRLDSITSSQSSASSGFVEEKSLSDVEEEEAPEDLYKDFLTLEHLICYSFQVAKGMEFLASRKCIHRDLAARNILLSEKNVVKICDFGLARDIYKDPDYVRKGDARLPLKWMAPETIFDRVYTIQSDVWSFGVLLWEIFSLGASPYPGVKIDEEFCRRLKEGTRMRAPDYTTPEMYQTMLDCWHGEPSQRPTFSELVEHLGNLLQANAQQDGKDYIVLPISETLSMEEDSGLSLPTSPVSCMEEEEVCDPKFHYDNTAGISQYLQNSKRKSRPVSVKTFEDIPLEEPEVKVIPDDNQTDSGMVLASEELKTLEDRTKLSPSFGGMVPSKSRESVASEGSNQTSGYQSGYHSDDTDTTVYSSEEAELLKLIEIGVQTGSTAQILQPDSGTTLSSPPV
The target in experiment [11] is Fibroblast growth factor receptor 1 (Homo sapiens) (UniProt P11362). In words: Inhibition of FGFR1 (unknown origin) using poly (Glu, Tyr) 4:1 as substrate at 100 uM after 1 hr by ELISA relative to control.
Chain of Fibroblast growth factor receptor 1 (Homo sapiens) (P11362 22-822 limits assumed): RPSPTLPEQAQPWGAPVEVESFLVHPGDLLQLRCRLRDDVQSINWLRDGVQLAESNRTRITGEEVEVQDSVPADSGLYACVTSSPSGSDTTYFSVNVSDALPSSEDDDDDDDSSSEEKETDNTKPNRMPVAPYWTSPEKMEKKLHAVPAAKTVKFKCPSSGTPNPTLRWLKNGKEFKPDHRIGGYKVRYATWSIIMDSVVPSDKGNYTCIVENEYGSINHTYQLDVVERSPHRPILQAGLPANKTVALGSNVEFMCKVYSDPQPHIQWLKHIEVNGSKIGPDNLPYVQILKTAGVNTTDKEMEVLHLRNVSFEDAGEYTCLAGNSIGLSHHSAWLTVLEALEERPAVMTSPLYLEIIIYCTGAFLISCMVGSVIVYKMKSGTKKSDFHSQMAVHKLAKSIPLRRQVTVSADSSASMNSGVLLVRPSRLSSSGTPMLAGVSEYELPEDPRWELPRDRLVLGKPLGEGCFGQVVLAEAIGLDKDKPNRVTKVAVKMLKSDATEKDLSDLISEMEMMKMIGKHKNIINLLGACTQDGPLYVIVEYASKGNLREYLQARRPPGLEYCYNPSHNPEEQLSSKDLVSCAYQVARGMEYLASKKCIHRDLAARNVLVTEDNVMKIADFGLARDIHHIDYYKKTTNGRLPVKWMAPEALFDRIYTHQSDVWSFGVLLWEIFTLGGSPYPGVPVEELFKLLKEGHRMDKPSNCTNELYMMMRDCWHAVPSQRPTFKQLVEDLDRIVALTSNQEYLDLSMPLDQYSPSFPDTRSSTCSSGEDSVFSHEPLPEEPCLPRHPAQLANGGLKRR
The subject of experiment [12] is A2780. The experiment is described as follows: Cell cycle arrest in human A2780 cells assessed as decrease in G2/M phase after 48 hrs by propidium iodide staining based flow cytometry. It is filed as functional. In general terms: Flow cytometry measures light scatter and fluorescence of single cells or particles in a stream.

Chain of Mitogen-activated protein kinase 1 (Homo sapiens) (P28482 whole entry): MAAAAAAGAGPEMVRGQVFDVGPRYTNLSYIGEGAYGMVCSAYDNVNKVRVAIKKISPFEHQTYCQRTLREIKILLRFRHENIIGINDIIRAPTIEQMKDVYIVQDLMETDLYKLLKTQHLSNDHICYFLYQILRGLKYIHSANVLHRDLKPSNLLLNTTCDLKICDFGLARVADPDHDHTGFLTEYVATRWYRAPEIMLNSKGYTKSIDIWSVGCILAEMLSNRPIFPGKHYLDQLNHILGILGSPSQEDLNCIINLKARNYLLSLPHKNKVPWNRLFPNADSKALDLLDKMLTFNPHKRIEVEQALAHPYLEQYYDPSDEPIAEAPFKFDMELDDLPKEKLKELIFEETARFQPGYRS
Chain of Glycogen synthase kinase-3 beta (P49841 whole entry, looked up): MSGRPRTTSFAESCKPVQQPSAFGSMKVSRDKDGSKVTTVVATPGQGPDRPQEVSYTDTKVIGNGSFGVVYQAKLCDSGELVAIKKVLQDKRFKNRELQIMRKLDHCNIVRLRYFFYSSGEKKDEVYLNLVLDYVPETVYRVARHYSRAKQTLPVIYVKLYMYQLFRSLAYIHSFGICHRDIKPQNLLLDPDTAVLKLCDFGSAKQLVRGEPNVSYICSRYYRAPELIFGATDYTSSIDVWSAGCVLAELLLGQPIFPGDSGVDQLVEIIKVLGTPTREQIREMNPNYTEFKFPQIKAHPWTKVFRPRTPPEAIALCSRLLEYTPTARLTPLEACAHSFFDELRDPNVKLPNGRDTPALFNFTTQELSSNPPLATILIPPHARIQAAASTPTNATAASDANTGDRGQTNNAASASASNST

With `CCCCCCCCCCCCCCC(=O)NC1CCN(C(=O)C2Sc3ccccc3N(CC)C2=O)CC1` (configuration not stated), in experiment [1], the inhibition in vivo at 30 mg/kg is 37.8%. For the same compound, the Activity in experiment [2] was 83.3%; in [12], “Dose-dependent effect”. Further, the inhibition (commonly the drop in the measured response relative to a control, in per cent) is 94.3% in experiment [3]; 12% in [4]; 7% in [5]; 0% in [6]; -3% in experiment [7]; 19.6% in [8]. Also, the values for the inhibition in experiment [9], in experiment [10] and in experiment [11] were 0%, 22.5% and 9.3%, respectively.

The record behind these values is ChEMBL document CHEMBL4052632 (Eur J Med Chem, 2017).
